From patent US3981903A, “Cyclopropane carboxylic acid esters” (Sumitomo Chemical Company, Limited, priority 1973, dated 1976) come the findings set out here.

In brackets after ≈: the same amount, converted by molar mass.

Type in all cases: in vivo
One data set relates to housefly adults. Nature of the data set: Test Example 3: pesticidal effects on housefly adults, Campbell's turn table, 0.2 % oil preparations. The conditions noted are these: 0.2 % oil preparation, 5 ml, present compounds as dl-trans isomers; for mortality at 0.2 %: Musca domestica, 24 h, after a day. On the procedure: dl-Trans isomers of the present compounds (1), (2), (3) and (4) were individually formulated by use of deodorized kerosene into 0.2 % oil preparations. As a control, pyrethrin was also formulated into a 0.2 % oil preparation.
Using the Campbell's turn table [Soap and Sanitary Chemicals; Vol. 14, No. 119 (1938)], 5 ml. of each of the above-mentioned oil preparations was sprayed. When 20 seconds had elapsed after the spraying, the shutter was opened, and a group of about 100 housefly adults were exposed to the settling mist for 10 minutes. Subsequently, the number of knocked down houseflies was counted to calculate the knock-down ratio. The houseflies were then transferred to another cage, fed and allowed to stand for a day at room temperature. Thereafter, the number of dead and alive houseflies was counted to calculate the mortality.

The subject of another data set is diamondback moths. Put plainly: Test Example 2: pesticidal effects on diamondback moth larvae, sprayed Chinese cabbage. As to conditions: for LC50: Plutella xylostella, 48 h, fourth instar larvae, after 2 days, from 20 % emulsifiable concentrates, read-out: LC50 (50 % lethal concentration); for Ratio of effect: relative to DDVP, defined as 1.0. On the procedure: The present compounds (1), (2), (3) and (4) were individually formulated according to ordinary procedure into 20 % emulsifiable concentrates. As a control, DDVP was also formulated into a 20 % emulsifiable concentrate.
Each of the above-mentioned emulsifiable concentrates was diluted with water to a test concentration, and 10 ml. of the resulting dilution was sprayed to the potted Chinese cabbages at the stage of 3 to 4 leaves. Subsequently, the cabbage leaves were put in a glass Petri dish of 14 cm. in diameter and 7 cm. in height, and 10 diamondback moth larvae at the fourth instar stage were liberated into the dish. After 2 days, the number of dead and alive larvae was counted to calculate the value of LC50 (50 % lethal concentration).

A further data set deals with green rice leafhoppers. Put plainly: Test Example 1: pesticidal effect on green rice leafhoppers, sprayed rice seedlings. The conditions noted are these: for Mortality: 20 % emulsifiable concentrate diluted to 200 times, next day, 1440 min; for KT50 (50 % knock-down time): 20 % emulsifiable concentrate diluted with water to 200 times. Here is the method:
The present compounds (1), (2), (3), (4), (5) and (6) were individually formulated according to ordinary procedure into 20 % emulsifiable concentrates. As a standard compound, 3,4-dimethylphenyl-N-methyl carbamate [hereinafter referred to as "Meobal" (registered trademark of Sumitomo Chemical Co., Ltd.)] was also formulated into a 20 % emulsifiable concentrate.
In flower pots of 9 cm. in diameter, about 20 rice seedlings per pot were grown to the stage of 3 to 4 leaves. Each of the above-mentioned emulsifiable concentrates was diluted with water to 200 times, and sprayed to the seedlings by use of a turn table. After air-drying, the seedlings were put in a 5 liter glass beaker, which was then covered at the top with gauze. Thereafter, 20 green rice leafhoppers were liberated into the beaker, and the number of knocked down insects was counted with lapse of time to calculate the value of KT50 (50 % knock-down time). On the next day, the number of dead and alive insects was counted to calculate the mortality.

One may read the mortality as the share of the test organisms that died. A higher mortality goes with fewer survivors.

With `CC(=CCOC(=O)C1C(C=C(Cl)Cl)C1(C)C)Cc1ccccc1` (stereo not drawn) [(4), 3-Methyl-4-phenyl-2-butene-1-yl 2',2'-dimethyl-3'-(2",2"-dichlorovinyl)-cyclopropanecarboxylate], in the data set on housefly adults, the “Ratio of knocked down houseflies after 10 minutes” value (“Ratio of knocked down houseflies” below) was 100% and the mortality at 0.2 % was found to be 98%. In the data set on diamondback moths, the LC50 is 75 µg/mL (≈ 212 µM) and the Ratio of effect is given as 4.9. Further, in the data set with green rice leafhoppers, the Mortality is listed as 100% and the “KT50 (50 % knock-down time)” value is recorded as 15 min.

Regarding `CC1(C)C(C=C(Cl)Cl)C1C(=O)OC/C=C(\Cl)Cc1ccccc1` (stereo not drawn) [(1), 3-Chloro-4-phenyl-trans-2-butene-1-yl 2',2'-dimethyl-3'-(2",2"-dichlorovinyl)-cyclopropanecarboxylate], in the data set on housefly adults, the “Ratio of knocked down houseflies” value amounted to 100% and the mortality at 0.2 % was 100%. Moreover, in the data set with diamondback moths, the LC50 stood at 43 µg/mL (≈ 115 µM) and the Ratio of effect was determined as 8.6. Moreover, in the data set with green rice leafhoppers, the Mortality is 100% and the “KT50 (50 % knock-down time)” value amounted to 19 min.

Take `CNC(=O)Oc1ccc(C)c(C)c1` [Meobal, 3,4-dimethylphenyl-N-methyl carbamate, reference compound]: the “KT50 (50 % knock-down time)” value with green rice leafhoppers turned out to be 24 min.

Regarding `CC1(C)C(C=C(Cl)Cl)C1C(=O)OC/C(Cl)=C(\Cl)Cc1ccccc1` (stereo not drawn) [(6), 2,3-Dichloro-4-phenyl-trans-2-butene-1-yl 2',2'-dimethyl-3'-(2",2"-dichlorovinyl)-cyclopropanecarboxylate], in the data set with green rice leafhoppers, the Mortality is on record as 100% and the “KT50 (50 % knock-down time)” value stood at 21 min.

As for `CC1(C)C(C=C(Cl)Cl)C1C(=O)OCC=C(Cl)Cc1ccccc1` (stereo not drawn) [(5), 3-Chloro-4-phenyl-trans-2-butene-1-yl d-trans-2',2'-dimethyl-3' -(2",2"-dichlorovinyl)-cyclopropanecarboxylate], in the data set with green rice leafhoppers, the Mortality was found to be 100% and the “KT50 (50 % knock-down time)” value is 9 min.

For `COP(=O)(OC)OC=C(Cl)Cl` [DDVP, 0,0-Dimethyl 0-2,2-dichlorovinyl phosphate, reference compound], the LC50 in the data set with diamondback moths was found to be 370 µg/mL.

Consider `CC1(C)C(C=C(Cl)Cl)C1C(=O)OC/C=C(\Br)Cc1ccccc1` (stereo not drawn) [(2), 3-Bromo-4-phenyl-trans-2-butene-1-yl 2',2'-dimethyl-3'-(2",2"-dichlorovinyl)-cyclopropanecarboxylate], for which, in the data set on housefly adults, the “Ratio of knocked down houseflies” value came out at 100% and the mortality at 0.2 % was 99%. Besides, in the data set on diamondback moths, the LC50 stood at 56 µg/mL (≈ 134 µM) and the Ratio of effect worked out at 6.6. In the data set on green rice leafhoppers, the Mortality came out at 100% and the “KT50 (50 % knock-down time)” value is given as 13 min.

On to `CC1(C)C(C=C(Cl)Cl)C1C(=O)OC/C=C/Cc1ccccc1` (stereo not drawn) [(3), 4-Phenyl-trans-2-butene-1-yl 2',2'-dimethyl-3'-(2",2"-dichlorovinyl)-cyclopropanecarboxylate], for which, in the data set with housefly adults, the “Ratio of knocked down houseflies” value was 100% and the mortality at 0.2 % was determined as 100%. Moreover, in the data set on diamondback moths, the LC50 was 48 µg/mL (≈ 141 µM) and the Ratio of effect is 7.7. In the data set with green rice leafhoppers, the Mortality stood at 100% and the “KT50 (50 % knock-down time)” value is recorded as 11 min.
